# Target: PIK3CA (human) (UniProt P42336)
# Test: Inhibition of PIK3CA Kinase Activity
# Chain of PIK3CA (human) (P42336 whole entry, looked up): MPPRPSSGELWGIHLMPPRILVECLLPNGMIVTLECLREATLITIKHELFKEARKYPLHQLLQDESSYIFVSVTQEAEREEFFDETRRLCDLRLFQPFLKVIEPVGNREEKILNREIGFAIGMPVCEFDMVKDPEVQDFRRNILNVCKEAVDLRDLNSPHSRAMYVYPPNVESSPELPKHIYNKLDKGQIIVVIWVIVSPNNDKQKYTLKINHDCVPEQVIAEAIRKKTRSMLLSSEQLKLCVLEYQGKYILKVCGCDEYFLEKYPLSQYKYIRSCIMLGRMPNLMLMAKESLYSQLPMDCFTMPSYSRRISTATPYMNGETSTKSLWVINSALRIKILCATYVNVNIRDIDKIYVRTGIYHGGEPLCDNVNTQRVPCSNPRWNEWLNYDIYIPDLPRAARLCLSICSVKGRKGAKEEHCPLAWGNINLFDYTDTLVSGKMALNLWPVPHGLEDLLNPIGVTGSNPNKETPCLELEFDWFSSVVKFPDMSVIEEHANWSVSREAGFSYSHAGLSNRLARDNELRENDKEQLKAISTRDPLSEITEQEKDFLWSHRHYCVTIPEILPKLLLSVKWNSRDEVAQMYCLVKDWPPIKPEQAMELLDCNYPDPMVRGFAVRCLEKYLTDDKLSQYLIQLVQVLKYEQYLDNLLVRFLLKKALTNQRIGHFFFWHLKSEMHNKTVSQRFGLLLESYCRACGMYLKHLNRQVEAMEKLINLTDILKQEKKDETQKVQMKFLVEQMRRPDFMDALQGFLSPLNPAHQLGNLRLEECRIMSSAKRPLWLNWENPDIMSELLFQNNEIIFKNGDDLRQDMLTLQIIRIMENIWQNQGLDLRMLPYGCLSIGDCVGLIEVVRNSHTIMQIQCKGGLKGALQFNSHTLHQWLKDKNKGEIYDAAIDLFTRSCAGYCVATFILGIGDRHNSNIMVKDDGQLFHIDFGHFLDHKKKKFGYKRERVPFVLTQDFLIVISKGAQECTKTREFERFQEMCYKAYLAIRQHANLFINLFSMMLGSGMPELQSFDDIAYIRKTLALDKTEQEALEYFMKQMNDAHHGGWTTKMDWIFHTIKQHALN
row,Structure (SMILES),IC50
1,Cc1nc2ccc(-c3ccc4c(c3)CN(c3ncnc5c3CCC(C)(C)C5)CCO4)cc2[nH]1,50 to 250 nM
2,CN1CC[C@@H](NS(=O)(=O)c2cc(-c3ccc4c(c3)CN(c3ncnc5c3CC(C)(C)CC5)CCO4)cnc2N)C1,50 to 250 nM
3,CCNc1nc2ccc(-c3ccc4c(c3)CN(c3nc(C)nc5cc(OC)ccc35)CCO4)cc2[nH]1,≤ 10 nM
4,Cc1nc2ncc(-c3ccc4c(c3)CN(c3ncnc(C)c3CC3CC3)CCO4)cc2[nH]1,50 to 250 nM
5,COC(=O)Nc1nc2ncc(-c3ccc4c(c3)CN(c3ncnc5c3CC(C)(C)CC5)CCO4)cc2[nH]1,≤ 10 nM
6,CC1(C)CCc2ncnc(N3CCOc4ccc(-c5cnc(Cl)c(OC(F)F)c5)cc4C3)c2C1,250 to 1000 nM
7,Cc1c(NCC2CCN(C)CC2)ncnc1N1CCOc2ccc(-c3cnc4nc(C5CC5)[nH]c4c3)cc2C1,250 to 1000 nM
8,CNS(=O)(=O)c1cc(-c2ccc3c(c2)CN(c2ncnc4c2CC(C)(C)C=C4)CCO3)cnc1N,10 to 50 nM
9,CC1(C)CCc2ncnc(N3CCOc4ccc(-c5cnc(N)c(S(=O)(=O)NCC6(N)CC6)c5)cc4C3)c2C1,50 to 250 nM
10,CC(C)(N)CNS(=O)(=O)c1cc(-c2ccc3c(c2)CN(c2ncnc4c2CC(C)(C)CC4)CCO3)cnc1N,50 to 250 nM
11,Cc1nc2ccc(-c3ccc4c(c3)CN(c3ncnc(C)c3CC3CC3)CCO4)cc2[nH]1,50 to 250 nM
12,Cc1ncnc(N2CCOc3ccc(-c4ccc5nc(N)cn5c4)cc3C2)c1Cc1ccc(F)cc1,10 to 50 nM
13,C=C[C@H]1CCCc2c(ncnc2N2CCOc3ccc(-c4cnc5nc(C)[nH]c5c4)cc3C2)C1,10 to 50 nM
14,COc1ccc2c(N3CCOc4ccc(-c5cnc6sc(NC(C)=O)nc6c5)cc4C3)nc(CN(C)C)nc2c1,10 to 50 nM
15,Cc1nc2ncc(-c3ccc4c(c3)CN(c3ncnc(C)c3Br)CCO4)cc2[nH]1,50 to 250 nM
16,CCNc1nc2ccc(-c3ccc4c(c3)CN(c3nc(CC)nc5ccccc35)CCO4)cc2[nH]1,10 to 50 nM
17,Cc1nc2ccc(-c3ccc4c(c3)CN(c3ncnc5ccc(OCC#N)cc35)CCO4)cc2[nH]1,10 to 50 nM
18,CCNc1nc2ccc(-c3ccc4c(c3)CN(c3ncnc(C)c3Cc3ccc(F)cc3)CCO4)cc2[nH]1,≤ 10 nM
19,COCCOc1ccc(-c2ccc3c(c2)CN(c2nc(CN(C)C)nc4c2CC(C)(C)CC4)CCO3)cc1OC,50 to 250 nM

row,Structure (SMILES),IC50
1,Cc1nc2ncc(-c3ccc4c(c3)CN(c3nc(CNC(C)(C)C)nc5c3CC(C)(C)CC5)CCO4)cc2[nH]1,10 to 50 nM
2,Cc1nc2ccc(-c3ccc4c(c3)CN(c3ccnc5cc(C#N)ccc35)CCO4)cc2[nH]1,50 to 250 nM
3,CCC(N)CNS(=O)(=O)c1cc(-c2ccc3c(c2)CN(c2ncnc4c2CC(C)(C)CC4)CCO3)cnc1N (configuration not stated),10 to 50 nM
4,Cc1nc2ncc(-c3ccc4c(c3)CN(c3ncnc5c3CC(F)(F)CC5)CCO4)cc2[nH]1,250 to 1000 nM
5,COC(=O)Nc1nc2ncc(-c3ccc4c(c3)CN(c3ncnc(C)c3Cc3ccc(F)cc3)CCO4)cc2[nH]1,≤ 10 nM
6,Cc1nc2ncc(-c3ccc4c(c3)CN(c3ncnc(Cl)c3C)CCO4)cc2[nH]1,50 to 250 nM
7,COc1cc2ncnc(N3CCOc4ccc(-c5ccc6nc(C)[nH]c6c5)cc4C3)c2cc1I,10 to 50 nM
8,COc1ccc2c(N3CCOc4ccc(-c5cnc(N)c([S+]([O-])C[C@@H](C)CO)c5)cc4C3)ncnc2c1 (some centres not stated),10 to 50 nM
9,COc1ccc2c(N3CCOc4ccc(-c5cnc(N)nc5)cc4C3)nc(C)nc2c1,50 to 250 nM
10,CC1(C)CCc2ncnc(N3CCOc4ccc(-c5cnc(O)c(S(=O)(=O)N6CC[C@H](N)C6)c5)cc4C3)c2C1,50 to 250 nM
11,Cc1nc2ccc(-c3ccc4c(c3)CN(c3nc(CN5CC[C@@H](F)C5)nc5c3CC(C)(C)CC5)CCO4)cc2[nH]1,10 to 50 nM
12,COc1ccc2c(N3CCOc4ccc(-c5ccc6[nH]c(C)nc6c5)cc4C3)nc(CN(C)C)nc2c1,≤ 10 nM
13,CCN(CC)Cc1nc2c(c(N3CCOc4ccc(-c5cnc6nc(C)[nH]c6c5)cc4C3)n1)CC(C)(C)CC2,10 to 50 nM
14,CCc1c(C(C)C)ncnc1N1CCOc2ccc(-c3ccc4nc(C)[nH]c4c3)cc2C1,250 to 1000 nM
15,CC1(C)C=Cc2ncnc(N3CCOc4ccc(-c5cnc6nc(C7CC7)[nH]c6c5)cc4C3)c2C1,10 to 50 nM
16,Cc1ncnc(N2CCOc3ccc(-c4ccc5nc(N)nn5c4)cc3C2)c1Cc1ccc(F)cc1,50 to 250 nM
17,Cc1cc(Br)c2ncnc(N3CCOc4ccc(-c5ccc6nc(C)[nH]c6c5)cc4C3)c2c1,50 to 250 nM
18,CC1(C)CCc2ncnc(N3CCOc4ccc(-c5cnc(N)c(S(=O)(=O)N6CC[C@@H](O)C6)c5)cc4C3)c2C1,10 to 50 nM

# Continued, values first:
row,IC50,Structure (SMILES)
1,10 to 50 nM,Cc1ncnc(N2CCOc3ccc(-c4ccc5sc(N)nc5n4)cc3C2)c1Cc1ccc(F)cc1
2,50 to 250 nM,Cc1nc2ccc(-c3ccc4c(c3)CN(c3ncnc5cc(Br)ccc35)CCO4)cc2[nH]1
3,10 to 50 nM,Cc1nc(CN(C)C)nc(N2CCOc3ccc(-c4ccc5[nH]c(C(F)F)nc5c4)cc3C2)c1C(C)C
4,50 to 250 nM,CNCc1nc2ncc(-c3ccc4c(c3)CN(c3ncnc5c3CC(C)(C)CC5)CCO4)cc2[nH]1
5,10 to 50 nM,CC(C)(O)CCS(=O)(=O)c1cc(-c2ccc3c(c2)CN(c2ncnc4c2CC(C)(C)CC4)CCO3)cnc1N
6,250 to 1000 nM,CCNc1nc2ccc(-c3ccc4c(c3)CN(c3cc(Nc5ccc(OC)cc5)ncn3)CCO4)cc2[nH]1
7,250 to 1000 nM,Cc1nc2cc(-c3ccc4c(c3)CN(c3nc(CN(C)C)nc(C)c3CC(C)C)CCO4)ccc2[nH]1
8,50 to 250 nM,Cc1nc2ccc(-c3ccc4c(c3)CN(c3ncnc5c(F)cccc35)CCO4)cc2[nH]1
9,≤ 10 nM,CCNCc1nc2c(c(N3CCOc4ccc(-c5ccc6nc(C)[nH]c6c5)cc4C3)n1)CC(C)(C)CC2
10,≤ 10 nM,Cc1nc2ncc(-c3ccc4c(c3)CN(c3nc(CN)nc5c3CC(C)(C)CC5)CCO4)cc2[nH]1
11,50 to 250 nM,CC(O)c1nc2cc(-c3ccc4c(c3)CN(c3ncnc5c3CC(C)(C)CC5)CCO4)cnc2[nH]1 (configuration not stated)
12,10 to 50 nM,CC1(C)CCc2ncnc(N3CCOc4ccc(-c5cnc(N)c(S(=O)(=O)N6CCC(C)(N)C6)c5)cc4C3)c2C1 (configuration not stated)
13,≤ 10 nM,CCNc1nc2ccc(-c3ccc4c(c3)CN(c3nc(C)nc5cc(O)ccc35)CCO4)cc2[nH]1
14,10 to 50 nM,Cc1nc2ncc(-c3ccc4c(c3)CN(c3ncnc5c3CCC(CO)C5)CCO4)cc2[nH]1 (configuration not stated)
15,50 to 250 nM,COc1ccc2c(N3CCOc4ccc(-c5ccc(N)nc5)cc4C3)nc(C)nc2c1
16,50 to 250 nM,CN(C)C1CN(S(=O)(=O)c2cc(-c3ccc4c(c3)CN(c3ncnc5c3CC(C)(C)CC5)CCO4)cnc2N)C1
17,50 to 250 nM,Cc1nc2ncc(-c3ccc4c(c3)CN(c3ncnc(N5CCN(C)CC5)c3C)CCO4)cc2[nH]1
18,10 to 50 nM,CN(C)c1ncc(-c2ccc3c(c2)CN(c2ncnc4c2CC(C)(C)CC4)CCO3)cc1NS(C)(=O)=O
19,≤ 10 nM,Cc1nc2cc(-c3ccc4c(c3)CN(c3nc(CN5CCCC5)nc5c3CC(C)(C)CC5)CCO4)cnc2[nH]1
20,10 to 50 nM,COC(=O)Nc1nc2ncc(-c3ccc4c(c3)CN(c3ccnc5cc(OC)c(OC)cc35)CCO4)cc2[nH]1
21,10 to 50 nM,CC1(C)CCc2ncnc(N3CCOc4ccc(-c5cnc6nc[nH]c6c5)cc4C3)c2C1
22,10 to 50 nM,COCCNCc1nc2c(c(N3CCOc4ccc(-c5cnc6nc(C)[nH]c6c5)cc4C3)n1)CC(C)(C)CC2
23,50 to 250 nM,CC1(C)CCc2ncnc(N3CCOc4ccc(-c5cnc(N)c(S(=O)(=O)NC[C@H]6CCCNC6)c5)cc4C3)c2C1
24,250 to 1000 nM,Cc1ncc(-c2ccc3c(c2)CN(c2ncnc4c2CCC(C)(C)C4)CCO3)s1
25,≤ 10 nM,Cc1ncnc(N2CCOc3ccc(-c4cnc5nc(N)[nH]c5c4)cc3C2)c1Cc1ccc(F)cc1

row,IC50,Structure (SMILES)
1,10 to 50 nM,CCC1CCc2nc(C)nc(N3CCOc4ccc(-c5cnc6nc(C)[nH]c6c5)cc4C3)c2C1 (configuration not stated)
2,≤ 10 nM,C=CCc1c(C)nc(CN(C)C)nc1N1CCOc2ccc(-c3cnc4sc(N)nc4c3)cc2C1
3,10 to 50 nM,Cc1nc2cc(-c3ccc4c(c3)CN(c3ncnc(C)c3Cc3ccc(F)cc3)CCO4)cnc2[nH]1
4,50 to 250 nM,CCc1c(C)ncnc1N1CCOc2ccc(-c3ccc4nc(C)[nH]c4c3)cc2C1
5,10 to 50 nM,Cc1nc2ccc(-c3ccc4c(c3)CN(c3ncnc5cc(F)ccc35)CCO4)cc2[nH]1
6,10 to 50 nM,Cc1nc2cc(-c3ccc4c(c3)CN(c3nc([C@@H]5CCCN5)nc5c3CC(C)(C)CC5)CCO4)cnc2[nH]1
7,10 to 50 nM,CCc1nc(CN(C)C)nc(N2CCOc3ccc(-c4cnc5[nH]c(C)nc5c4)cc3C2)c1C
8,50 to 250 nM,CCc1c(C)ncnc1N1CCOc2ccc(-c3cnc4nc(C)[nH]c4c3)cc2C1
9,≤ 10 nM,COc1cc2nccc(N3CCOc4ccc(-c5cnc6nc(N)[nH]c6c5)cc4C3)c2cc1OC
10,≤ 10 nM,CCNc1nc2ccc(-c3ccc4c(c3)CN(c3ccnc5cc(OC)ccc35)CCO4)cc2[nH]1
11,50 to 250 nM,CC1(C)CCc2ncnc(N3CCOc4ccc(-c5cnc(N)c(S(=O)(=O)N6CC7CNCC7C6)c5)cc4C3)c2C1 (configuration not stated)
12,10 to 50 nM,CC[C@H]1CCc2c(ncnc2N2CCOc3ccc(-c4cnc(N)c(S(=O)(=O)N5CC[C@@H](N)C5)c4)cc3C2)C1
13,≤ 10 nM,COc1ccc2c(N3CCOc4ccc(-c5cnc6nc[nH]c6c5)cc4C3)nc(C)nc2c1
14,≤ 10 nM,CCNc1nc2ncc(-c3ccc4c(c3)CN(c3nc(C)nc5cc(OC)ccc35)CCO4)cc2[nH]1
15,10 to 50 nM,CCc1c(C)nc(CN(C)C)nc1N1CCOc2ccc(-c3ccc4[nH]c(C)nc4c3)cc2C1
16,50 to 250 nM,CC1(C)CCc2ncnc(N3CCOc4ccc(-c5cnc6[nH]c(C(F)F)nc6c5)cc4C3)c2C1
17,10 to 50 nM,COCCNCc1nc2c(c(N3CCOc4ccc(-c5ccc6nc(C)[nH]c6c5)cc4C3)n1)CC(C)(C)CC2
18,50 to 250 nM,CCOC(=O)Nc1nc2ncc(-c3ccc4c(c3)CN(c3ncnc5c3CC(C)(C)CC5)CCO4)cc2[nH]1
19,≤ 10 nM,CC[C@H]1CCc2c(nc(C)nc2N2CCOc3ccc(-c4cnc(N)c(S(=O)(=O)N5CCC(C)(N)C5)c4)cc3C2)C1 (some centres not stated)
20,250 to 1000 nM,c1cc(N2CCOc3ccc(-c4ccc5nc[nH]c5c4)cc3C2)ncn1
21,10 to 50 nM,Cc1nc2ccc(-c3ccc4c(c3)CN(c3ncnc5cc(I)ccc35)CCO4)cc2[nH]1
22,10 to 50 nM,COCCNS(=O)(=O)c1cc(-c2ccc3c(c2)CN(c2ncnc4c2CC(C)(C)CC4)CCO3)cnc1N
23,10 to 50 nM,COc1ccc2c(N3CCOc4ccc(-c5cnc(NC(C)=O)s5)cc4C3)nc(C)nc2c1
24,≤ 10 nM,Nc1nc2ncc(-c3ccc4c(c3)CN(c3ncnc5ccc(Br)cc35)CCO4)cc2[nH]1
25,250 to 1000 nM,CC1(C)CCc2ncnc(N3CCOc4ccc(-c5cnc(N6CC[C@H](N)C6)c(S(=O)(=O)N6CC[C@H](N)C6)c5)cc4C3)c2C1

# Source: the Kinase Knowledgebase extract (Sharma et al. 2016)
